From PubChem BioAssay AID1963449 (Molecular Pharmacology Branch, DTP, NCI, 2024)
Several values for one entry are separate records, joined by “and”; a condition that tells them apart may be missing. Identical values can stand only once.

Tested on: 596521-263-R-J1-PDC complex spheroid growth
Assay: Anticancer human tumor 596521-263-R-J1-PDC patient-derived soft tissue sarcoma cell line growth inhibition [Asc]
Details: for viability, T/C: stronger effect = lower value
Procedure, shortened: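 Concentration series start at each agent's clinical Cmax, or at 10 microM when none is established, and drop in half-log steps; agents are applied alone or together to complex spheroids built with HUVEC and hMSC.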

[1] = curve of first compound, second compound 0.0316 µM
[2] = curve of first compound, second compound 0.1 µM
[3] = curve of first compound, second compound 0.316 µM
[4] = curve of first compound, second compound 1 µM
[5] = curve of first compound, second compound 3.16 µM
[6] = curve of first compound, second compound 10 µM
[7] = second compound 0.0316 µM, first compound 0.0316 µM
[8] = second compound 0.0316 µM, first compound 0.1 µM
[9] = second compound 0.1 µM, first compound 0.0316 µM
[10] = second compound 0.1 µM, first compound 0.1 µM
[11] = second compound 0.316 µM, first compound 0.0316 µM
[12] = second compound 0.316 µM, first compound 0.1 µM
[13] = second compound 1 µM, first compound 0.0316 µM
[14] = second compound 1 µM, first compound 0.1 µM
[15] = second compound 3.16 µM, first compound 0.0316 µM
[16] = second compound 3.16 µM, first compound 0.1 µM
[17] = second compound 10 µM, first compound 0.0316 µM
[18] = second compound 10 µM, first compound 0.1 µM
[19] = second compound 0.0316 µM, first compound 0.316 µM
[20] = second compound 0.0316 µM, first compound 1 µM
[21] = second compound 0.0316 µM, first compound 3.16 µM
[22] = second compound 0.0316 µM, first compound 10 µM
[23] = second compound 0.1 µM, first compound 0.316 µM
[24] = second compound 0.1 µM, first compound 1 µM
[25] = second compound 0.1 µM, first compound 3.16 µM
[26] = second compound 0.1 µM, first compound 10 µM
[27] = second compound 0.316 µM, first compound 0.316 µM
[28] = second compound 0.316 µM, first compound 1 µM
[29] = second compound 0.316 µM, first compound 3.16 µM
[30] = second compound 0.316 µM, first compound 10 µM
[31] = second compound 1 µM, first compound 0.316 µM
[32] = second compound 1 µM, first compound 1 µM
[33] = second compound 1 µM, first compound 3.16 µM
[34] = second compound 1 µM, first compound 10 µM
[35] = second compound 3.16 µM, first compound 0.316 µM
[36] = second compound 3.16 µM, first compound 1 µM
[37] = second compound 3.16 µM, first compound 3.16 µM
[38] = second compound 3.16 µM, first compound 10 µM
[39] = second compound 10 µM, first compound 0.316 µM
[40] = second compound 10 µM, first compound 1 µM
[41] = second compound 10 µM, first compound 3.16 µM
[42] = second compound 10 µM, first compound 10 µM
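Also: spheroids exposed to compounds for 7 days.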

Cn1ncnc1[C@H]1c2n[nH]c(=O)c3cc(F)cc(c23)N[C@@H]1c1ccc(F)cc1 + Cc1c(S(C)(=O)=O)c(-c2cc(F)cc(N3CCN(c4ccc(NS(=O)(=O)c5ccc(NC(CCN6CCC(C(=O)OCCCP(=O)(O)O)CC6)CSc6ccccc6)c(S(=O)(=O)C(F)(F)F)c5)cc4)CC3)c2)c(-c2ccc(Cl)cc2)n1C(C)C
IC50 [1]: > 0.1 µM
IC50 [2]: > 0.1 µM
IC50 [3]: > 0.1 µM
IC50 [4]: > 0.1 µM
IC50 [5]: 0.0385 µM
IC50 [6]: 0.00107 µM
viability, T/C (second compound 0.0316 µM, first compound 0.000316 µM): 97.5%
viability, T/C (second compound 0.0316 µM, first compound 0.001 µM): 112%
viability, T/C (second compound 0.0316 µM, first compound 0.00316 µM): 81.9%
viability, T/C (second compound 0.0316 µM, first compound 0.01 µM): 94.1%
viability, T/C [7]: 87.4%
viability, T/C [8]: 79.3%
viability, T/C (second compound 0.1 µM, first compound 0.000316 µM): 90.6%
viability, T/C (second compound 0.1 µM, first compound 0.001 µM): 97.8%
viability, T/C (second compound 0.1 µM, first compound 0.00316 µM): 94.3%
viability, T/C (second compound 0.1 µM, first compound 0.01 µM): 81.6%
viability, T/C [9]: 78.5%
viability, T/C [10]: 74.5%
viability, T/C (second compound 0.316 µM, first compound 0.000316 µM): 88.5%
viability, T/C (second compound 0.316 µM, first compound 0.001 µM): 86.6%
viability, T/C (second compound 0.316 µM, first compound 0.00316 µM): 77.7%
viability, T/C (second compound 0.316 µM, first compound 0.01 µM): 82.8%
viability, T/C [11]: 75.5%
viability, T/C [12]: 73.4%
viability, T/C (second compound 1 µM, first compound 0.000316 µM): 90.9%
viability, T/C (second compound 1 µM, first compound 0.001 µM): 85.3%
viability, T/C (second compound 1 µM, first compound 0.00316 µM): 85.2%
viability, T/C (second compound 1 µM, first compound 0.01 µM): 65%
viability, T/C [13]: 68.4%
viability, T/C [14]: 61.1%
viability, T/C (second compound 3.16 µM, first compound 0.000316 µM): 58.7%
viability, T/C (second compound 3.16 µM, first compound 0.001 µM): 69.5%
viability, T/C (second compound 3.16 µM, first compound 0.00316 µM): 57.3%
viability, T/C (second compound 3.16 µM, first compound 0.01 µM): 57.4%
viability, T/C [15]: 52.6%
viability, T/C [16]: 40.2%
viability, T/C (second compound 10 µM, first compound 0.000316 µM): 54.1%
viability, T/C (second compound 10 µM, first compound 0.001 µM): 50.3%
viability, T/C (second compound 10 µM, first compound 0.00316 µM): 43.6%
viability, T/C (second compound 10 µM, first compound 0.01 µM): 42%
viability, T/C [17]: 42%
viability, T/C [18]: 28.9%

CCN1CCN(Cc2ccc(Nc3ncc(F)c(-c4cc(F)c5nc(C)n(C(C)C)c5c4)n3)nc2)CC1
viability, T/C (compound 0.00316 µM): 99.1% and 89.3% and 99.2%
viability, T/C (compound 0.01 µM): 103% and 87.3% and 82%
viability, T/C (compound 0.0316 µM): 96.3% and 101% and 86.1%
viability, T/C (compound 0.1 µM): 97.9% and 93.3% and 105%
viability, T/C (compound 0.316 µM): 96.8% and 101% and 92%
viability, T/C (compound 1 µM): 79.4% and 77.1% and 87.2%
IC50 (curve of compound): > 1 µM

C#Cc1c(F)ccc2cc(O)cc(-c3ncc4c(N5CC6CCC(C5)N6)nc(OCC56CCCN5CC(F)C6)nc4c3F)c12 (stereo not drawn) + Cc1c(S(C)(=O)=O)c(-c2cc(F)cc(N3CCN(c4ccc(NS(=O)(=O)c5ccc(NC(CCN6CCC(C(=O)OCCCP(=O)(O)O)CC6)CSc6ccccc6)c(S(=O)(=O)C(F)(F)F)c5)cc4)CC3)c2)c(-c2ccc(Cl)cc2)n1C(C)C
IC50 [1]: > 10 µM
IC50 [2]: > 10 µM
IC50 [3]: > 10 µM
IC50 [4]: > 10 µM
IC50 [5]: > 10 µM
IC50 [6]: 1.68 µM
viability, T/C [7]: 84.7%
viability, T/C [8]: 89.1%
viability, T/C [19]: 91%
viability, T/C [20]: 98.1%
viability, T/C [21]: 111%
viability, T/C [22]: 85.7%
viability, T/C [9]: 85.9%
viability, T/C [10]: 107%
viability, T/C [23]: 107%
viability, T/C [24]: 95.5%
viability, T/C [25]: 95.6%
viability, T/C [26]: 87.8%
viability, T/C [11]: 82.2%
viability, T/C [12]: 81.8%
viability, T/C [27]: 76.9%
viability, T/C [28]: 83.6%
viability, T/C [29]: 100%
viability, T/C [30]: 68.4%
viability, T/C [13]: 83.7%
viability, T/C [14]: 84.2%
viability, T/C [31]: 79.1%
viability, T/C [32]: 83.4%
viability, T/C [33]: 69.3%
viability, T/C [34]: 60.5%
viability, T/C [15]: 59.4%
viability, T/C [16]: 65.3%
viability, T/C [35]: 61%
viability, T/C [36]: 57.1%
viability, T/C [37]: 60.4%
viability, T/C [38]: 42.6%
viability, T/C [17]: 48.1%
viability, T/C [18]: 47.8%
viability, T/C [39]: 55.1%
viability, T/C [40]: 60.7%
viability, T/C [41]: 43.7%
viability, T/C [42]: 37.2%

C=CC(=O)N1CCN(c2nc(=O)n(-c3c(C)ccnc3C(C)C)c3nc(-c4c(O)cccc4F)c(F)cc23)C(C)C1 (stereo not drawn) + Cc1c(S(C)(=O)=O)c(-c2cc(F)cc(N3CCN(c4ccc(NS(=O)(=O)c5ccc(NC(CCN6CCC(C(=O)OCCCP(=O)(O)O)CC6)CSc6ccccc6)c(S(=O)(=O)C(F)(F)F)c5)cc4)CC3)c2)c(-c2ccc(Cl)cc2)n1C(C)C
IC50 [1]: > 10 µM
IC50 [2]: > 10 µM
IC50 [3]: > 10 µM
IC50 [4]: 6.36 µM
IC50 [5]: 2.98 µM
IC50 [6]: 1.35 µM
viability, T/C [7]: 83.2%
viability, T/C [8]: 84.6%
viability, T/C [19]: 95%
viability, T/C [20]: 98.9%
viability, T/C [21]: 94.9%
viability, T/C [22]: 65.8%
viability, T/C [9]: 87.3%
viability, T/C [10]: 93.9%
viability, T/C [23]: 93.6%
viability, T/C [24]: 107%
viability, T/C [25]: 95.8%
viability, T/C [26]: 63%
viability, T/C [11]: 83.7%
viability, T/C [12]: 82.5%
viability, T/C [27]: 80.1%
viability, T/C [28]: 99.9%
viability, T/C [29]: 87.1%
viability, T/C [30]: 59.9%
viability, T/C [13]: 82.3%
viability, T/C [14]: 75.9%
viability, T/C [31]: 81%
viability, T/C [32]: 73.5%
viability, T/C [33]: 70.5%
viability, T/C [34]: 37.1%
viability, T/C [15]: 66.6%
viability, T/C [16]: 63%
viability, T/C [35]: 62.6%
viability, T/C [36]: 63.4%
viability, T/C [37]: 49.3%
viability, T/C [38]: 36%
viability, T/C [17]: 55.9%
viability, T/C [18]: 53%
viability, T/C [39]: 60.1%
viability, T/C [40]: 52.4%
viability, T/C [41]: 40.8%
viability, T/C [42]: 30.6%
